The record followed here is patent US10350206B2, “Benzyl substituted indazoles as BUB1 inhibitors” (Bayer Pharma Aktiengesellschaft, priority 2014, dated 2019).

The target in the assay is T1, catalytic domain of human Bub1 (amino acids 704-1085) (Homo sapiens, UniProt O43683).
T1 construct: catalytic domain of human Bub1 (amino acids 704-1085); His6 (N); made in house; host or cells: Hi5 insect cells
As to the kind of experiment: Bub1 kinase assay (TR-FRET). The class given is biochemical. To be noted: 10 μM ATP, 60 min reaction, pH 7.5; read-out: Biological Assay 1: Bub1 kinase assay median IC50.

Each structure is given as a SMILES string.

T1 sequence (O43683 704-1085): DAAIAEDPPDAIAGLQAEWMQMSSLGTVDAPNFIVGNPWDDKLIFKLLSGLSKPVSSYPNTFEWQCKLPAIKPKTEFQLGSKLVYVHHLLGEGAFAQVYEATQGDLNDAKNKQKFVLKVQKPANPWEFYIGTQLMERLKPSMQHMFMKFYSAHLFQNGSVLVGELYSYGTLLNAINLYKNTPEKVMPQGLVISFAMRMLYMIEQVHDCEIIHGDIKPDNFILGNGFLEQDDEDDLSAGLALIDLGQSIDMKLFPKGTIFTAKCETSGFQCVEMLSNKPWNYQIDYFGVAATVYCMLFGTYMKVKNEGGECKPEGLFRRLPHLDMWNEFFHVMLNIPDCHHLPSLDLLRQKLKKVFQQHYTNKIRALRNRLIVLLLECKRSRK

As for `COc1cnc(-c2nn(Cc3c(F)cc(OCCO)cc3F)c3ccccc23)nc1Nc1ccnc(C)c1` [Example 2-1-2, 2-{3,5-difluoro-4-[(3-{5-methoxy-4-[(2-methylpyridin-4-yl)amino]pyrimidin-2-yl}-1H-indazol-1-yl)methyl]phenoxy}ethanol], the 50% inhibitory concentration (IC50) worked out at 24 nM. As to `COc1cnccc1Nc1nc(-c2nn(Cc3c(F)cc(OCCO)cc3F)c3ccccc23)ncc1OC` [Example 2-1-3, 2-{3,5-difluoro-4-[(3-{5-methoxy-4-[(3-methoxypyridin-4-yl)amino]pyrimidin-2-yl}-1H-indazol-1-yl)methyl]phenoxy}ethanol], the IC50 worked out at 7.1 nM.

By IC50 is commonly meant the midpoint of a concentration-inhibition curve.
